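Grown in 96-well plates, cells were treated for 48 hours with each compound at five concentrations. Insufficient inhibition: endpoint recorded as highest concentration tested. At the GI50, growth is halved. TGI denotes the concentration required for complete inhibition of growth.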 A value given as a limit tells only on which side of the number the result lay.

Consider 8 compounds from PubChem BioAssay (NCI).

Test systems include UACC-62 melanoma; K-562 leukemia; CAKI-1 renal; NCI-H460 lung; SW-620 colon; A549 NSCLC; MDA-MB-435; CCRF-CEM leukemia; HS 578T breast; BT-549 breast.
Test in all cases: growth of human tumour cells (NCI), 48 h

In the case of `Cc1cnc2n(c1=O)Cc1ccccc1CO2`, the GI50 with UACC-62 melanoma is 14.7 µM; in the experiment with K-562 leukemia it was 18.7 µM; in the experiment with CAKI-1 renal, 16.9 µM; in the experiment with NCI-H460 lung it was 17.7 µM; in the experiment on SW-620 colon it was 17.3 µM; with A549 NSCLC it was 28.7 µM. The GI50 in the experiment on MDA-MB-435 was 25.9 µM; in the experiment on CCRF-CEM leukemia, 2.35 µM; in the experiment on HS 578T breast, 23.9 µM; in the experiment with BT-549 breast, 15.5 µM. The TGI in the experiment with UACC-62 melanoma is 28.7 µM; in the experiment on K-562 leukemia, 48.3 µM; with CAKI-1 renal, 32.5 µM; in the experiment on NCI-H460 lung, 40.2 µM; in the experiment with SW-620 colon, 49 µM; in the experiment on A549 NSCLC, > 100 µM. The TGI with MDA-MB-435 was > 72.1 µM; with CCRF-CEM leukemia, 10.5 µM; with HS 578T breast it was > 100 µM; with BT-549 breast, 32.8 µM.

For `COc1ccc(/C=N/C2=C(C#N)C(c3ccccc3)c3ccc4ccccc4c3O2)cc1` (stereo not given), the GI50 is 0.491 µM in the experiment on UACC-62 melanoma; 0.23 µM in the experiment on K-562 leukemia; 0.224 µM in the experiment on CAKI-1 renal; 0.363 µM in the experiment with NCI-H460 lung; 0.316 µM with SW-620 colon; 0.641 µM in the experiment on A549 NSCLC. Further, the GI50 in the experiment on MDA-MB-435 was 0.0962 µM; in the experiment on CCRF-CEM leukemia, 0.377 µM; in the experiment with HS 578T breast it was 0.279 µM; in the experiment with BT-549 breast, 0.793 µM. The TGI with UACC-62 melanoma is > 100 µM; in the experiment on K-562 leukemia, > 100 µM; in the experiment on CAKI-1 renal it was > 61.8 µM; in the experiment with NCI-H460 lung it was > 100 µM; in the experiment with SW-620 colon it was > 100 µM; with A549 NSCLC it was > 100 µM. Moreover, the TGI with MDA-MB-435 was 0.353 µM; in the experiment with CCRF-CEM leukemia it was > 100 µM; with HS 578T breast, > 100 µM; with BT-549 breast it was > 100 µM.

`CCc1cc(Cc2cc(CC)cc(C(C)(C)C)c2O)c(O)c(C(C)(C)C)c1`: the GI50 is 2.4 µM with UACC-62 melanoma; 3.37 µM in the experiment on K-562 leukemia; 1.92 µM in the experiment with CAKI-1 renal; 2.59 µM in the experiment on NCI-H460 lung; 2.25 µM in the experiment with SW-620 colon; 3.18 µM with A549 NSCLC. Besides, the GI50 with MDA-MB-435 was 2.35 µM; in the experiment with CCRF-CEM leukemia, 5.16 µM; in the experiment with HS 578T breast, 2.59 µM; in the experiment with BT-549 breast, 2.16 µM. Moreover, the TGI was 7.85 µM with UACC-62 melanoma; 13.9 µM in the experiment with K-562 leukemia; 5.75 µM with CAKI-1 renal; 6.98 µM in the experiment with NCI-H460 lung; 7.07 µM in the experiment with SW-620 colon; 13.2 µM with A549 NSCLC. Also, the TGI in the experiment with MDA-MB-435 is 7.16 µM; in the experiment with CCRF-CEM leukemia, > 100 µM; with HS 578T breast, 8.29 µM; in the experiment with BT-549 breast it was 7.76 µM.

Take `c1ccc(Oc2cnc3ccccc3n2)cc1`: the GI50 was 85.3 µM in the experiment with UACC-62 melanoma; > 100 µM in the experiment with K-562 leukemia; 10.2 µM in the experiment with CAKI-1 renal; > 100 µM in the experiment with NCI-H460 lung; > 100 µM in the experiment with SW-620 colon; > 100 µM in the experiment with A549 NSCLC. The GI50 is > 100 µM with MDA-MB-435, > 100 µM in the experiment with CCRF-CEM leukemia, 30.3 µM in the experiment on HS 578T breast and 12 µM with BT-549 breast. In addition, the TGI in the experiment with UACC-62 melanoma is > 100 µM; with K-562 leukemia it was > 100 µM; in the experiment with CAKI-1 renal it was 50 µM; in the experiment with NCI-H460 lung it was > 100 µM; in the experiment with SW-620 colon it was > 100 µM; in the experiment on A549 NSCLC, > 100 µM. Besides, the TGI in the experiment with MDA-MB-435 was > 100 µM; in the experiment on CCRF-CEM leukemia, > 100 µM; in the experiment on HS 578T breast, > 100 µM; in the experiment on BT-549 breast, 68.3 µM.

On to `Cn1cc(C2=C(c3cn(CCCN/C(N)=N\[N+](=O)[O-])c4ccccc34)C(=O)NC2=O)c2ccccc21`, for which the GI50 is 3.1 µM in the experiment with UACC-62 melanoma; 2.95 µM in the experiment with K-562 leukemia; 8.06 µM in the experiment with CAKI-1 renal; 5.9 µM in the experiment on NCI-H460 lung; 5.63 µM in the experiment on SW-620 colon; 8.52 µM in the experiment with A549 NSCLC. Also, the GI50 is 3.01 µM in the experiment on MDA-MB-435, 0.0877 µM in the experiment on CCRF-CEM leukemia, 1.42 µM in the experiment with HS 578T breast and 2.1 µM with BT-549 breast. Also, the TGI is 7.59 µM in the experiment with UACC-62 melanoma; > 22.5 µM in the experiment on K-562 leukemia; > 25 µM in the experiment on CAKI-1 renal; 20.6 µM in the experiment with NCI-H460 lung; > 22.1 µM in the experiment on SW-620 colon; > 25 µM with A549 NSCLC. The TGI was determined as 7.73 µM in the experiment on MDA-MB-435, 6.63 µM in the experiment on CCRF-CEM leukemia, 14.5 µM in the experiment on HS 578T breast and 9.38 µM with BT-549 breast.

`O=C1COCCN1c1ccc(NCc2cn(Cc3ccc(F)cc3)c3ccccc23)cc1`: the GI50 in the experiment on UACC-62 melanoma was 0.0978 µM; in the experiment on K-562 leukemia it was 1.25 µM; in the experiment on CAKI-1 renal, 0.0252 µM; in the experiment with NCI-H460 lung, 0.133 µM; in the experiment on SW-620 colon it was 0.562 µM; with A549 NSCLC, 1.68 µM. For the same compound, the GI50 was 14.5 µM in the experiment on MDA-MB-435, 5.4 µM in the experiment with CCRF-CEM leukemia, 3.41 µM with HS 578T breast and 3.47 µM with BT-549 breast. In addition, the TGI was 0.617 µM in the experiment with UACC-62 melanoma; > 51.3 µM in the experiment with K-562 leukemia; 0.418 µM with CAKI-1 renal; 29.2 µM with NCI-H460 lung; > 52.6 µM in the experiment with SW-620 colon; > 100 µM with A549 NSCLC. The TGI in the experiment with MDA-MB-435 is 32.1 µM; in the experiment on CCRF-CEM leukemia it was > 96.4 µM; in the experiment on HS 578T breast, 44.1 µM; in the experiment on BT-549 breast, 22.4 µM.

In the case of `Nc1nc(-c2ccccc2Cl)cc(-c2ccc(Cl)cc2Cl)n1`, the GI50 is 5.93 µM in the experiment on UACC-62 melanoma; 3.97 µM with K-562 leukemia; 9.27 µM with CAKI-1 renal; 3.31 µM with NCI-H460 lung; 3.41 µM in the experiment on SW-620 colon; 4.81 µM with A549 NSCLC. The GI50 in the experiment on MDA-MB-435 is 1.97 µM; in the experiment on CCRF-CEM leukemia it was 4.17 µM; with HS 578T breast, 6.04 µM; with BT-549 breast, 13.8 µM. Further, the TGI in the experiment on UACC-62 melanoma was 44.2 µM; in the experiment on K-562 leukemia it was > 100 µM; with CAKI-1 renal it was > 100 µM; in the experiment with NCI-H460 lung, 23.1 µM; with SW-620 colon, > 100 µM; in the experiment with A549 NSCLC, > 100 µM. The TGI with MDA-MB-435 is 4.93 µM; in the experiment on CCRF-CEM leukemia, > 100 µM; with HS 578T breast, 60.7 µM; in the experiment on BT-549 breast it was > 100 µM.

As for `CC(=O)SC(C[N+](=O)[O-])c1ccccc1` (stereo not given), the TGI in the experiment on UACC-62 melanoma is 28.5 µM; in the experiment with K-562 leukemia it was 12.8 µM; in the experiment with CAKI-1 renal it was 29.3 µM; in the experiment with NCI-H460 lung, 24.8 µM; in the experiment with SW-620 colon it was 5.6 µM; with A549 NSCLC, 14 µM. Further, the TGI in the experiment on MDA-MB-435 was found to be 6.08 µM; in the experiment on CCRF-CEM leukemia it was 19.9 µM; with HS 578T breast, 23.4 µM; in the experiment with BT-549 breast, 5.19 µM.
